Measured values taken from publication PMC5640650, “NatD promotes lung cancer progression by preventing histone H4 serine phosphorylation to activate Slug expression” (Nature Communications, 2017).

How the values were obtained:
H1299 cells = experiment: qPCR and western blot of EMT and proliferation genes, H1299 cells; assay type: cell-based, human
Excerpt: Fig. 4 Silencing NatD suppresses cancer cell EMT by downregulating Slug. a Representative phase contrast images of Scr and NatD-KD H1299 cells treated with TGF-β1. Data are representative of three independent experiments. Scale bar, 100 μm. b Quantitative real-time PCR analysis of mRNA levels of indicated key EMT-related genes in Scr and NatD-KD H1299 cells normalized to GAPDH in the absence or presence of TGF-β1. Results are shown as mean ± s.d. of three independent experiments. Two-tailed Student’s t-test was used. **P < 0.01 or *P < 0.05 compared with the indicated control. c Western blot analysis of indicated protein levels in Scr and NatD-KD H1299 cells in the absence or presence of TGF-β1. GAPDH served as a loading control. Data are representative of three independent experiments. d Immunofluorescence analysis of Scr and NatD-KD H1299 cells in the absence or presence of TGF-β1 stained for E-cadherin and N-cadherin. Data are representative of three independent experiments. Scale bar, 20 μm. Migration (e, top) and invasion (f, top) of Scr cells, NatD-KD cells, and NatD-KD cells with enforced Slug expression (NatD-KD + Slug). (bottom panels) Cells were counted in at least four random microscope fields (×100 magnification) for the corresponding assays; migration and invasion are expressed as a percentage of control. Results are shown as mean ± s.d. of three independent experiments. Two-tailed Student’s t-test was used. **P < 0.01 compared with the indicated control. g Quantitative real-time PCR analysis of the mRNA levels of NatD and indicated key EMT-related genes (normalized to GAPDH) in Scr cells, NatD-KD cells, and NatD-KD + Slug cells. Results are shown as mean ± s.d. of three independent experiments. Two-tailed Student’s t-test was used. **P < 0.01 or *P < 0.05 compared with Scr or indicated control. h Western blot analysis of indicated protein levels in Scr cells, NatD-KD cells, and NatD-KD + Slug cells. GAPDH served as a loading control. Data are representative of three independent blots. i Pearson correlation scatter plot of the H score of Slug and NatD in human lung carcinoma (n = 147); r = 0.6672, P < 0.0001
Cellular proteins were extracted by RIPA lysis buffer at high salt concentration (420 mM NaCl), and western blot analysis was performed in accordance with standard protocols. Scans of enhanced chemiluminescence (ECL) films showing uncropped blots are presented in Supplementary Fig. 10. The following antibodies were used for western blotting: NatD (Abcam; ab106408, 1:1000), GAPDH (MBL International; M171-3, 1:5000), Vimentin (BD Biosciences; 550513, 1:1000), E-cadherin (BD Biosciencs; 610181, 1:1000), N-cadherin (Abcam; ab76057, 1:1000), Slug (Abcam; ab27568, 1:500), Zeb1 (ABclonal; A5600, 1:1000), Zeb2 (Abcam; ab138222, 1:500), Twist1 (ABclonal; A7314, 1:1000), Snail (Santa Cruz Biotechnology; sc-271977, 1:500), Histone H4 (PTM Biolabs; PTM-1004, 1:2000), Histone H3(Genscript; A01502, 1:1000), H4K5ac (Millipore; CS204381, 1:1000), H4K8ac (Millipore; CS204357, 1:1000), H4K12ac (Millipore; 06-1352, 1:1000), H4R3me2a (Active Motif; 39705, 1:1000), H4R3me2s (Abcam; ab5823, 1:1000), H4S1ph (Abcam; ab14723, 1:1000), CK2α (Abcam; ab70774, 1:2000), Lamin A/C (Genscript; A01455, 1:2000), and Hsp70 (Genscript; A01236, 1:1000). Peptide pulldown assays were performed according to standard protocols, [44]. Briefly, we coupled streptavidin beads to 2 μg C-terminal biotin-tagged 31-mer N-terminal peptides of histone H4 and to acetylated H4 (Nt-ac-H4), as well as to C-terminal biotin-tagged 20-mer N-terminal peptides of non-acetylated histone H3. The resulting streptavidin-coupled peptides were incubated with H1299 cellular extracts prepared with high salt extraction (420 mM NaCl). We eluted specifically bound protein from stringently washed beads, separated the samples by SDS-PAGE, and visualized proteins by western blot with anti-CK2α antibody. […]

[1] = system: promoters of Zeb1, Zeb2, Twist1, and Snail; experiment: ChIP assay on the promoters of Zeb1, Zeb2, Twist1, and Snail, H1299 cells; assay type: cell-based, human; details: vs Scr
Procedure: ChIP assays were performed with H1299 cells in accordance with standard protocols. Normal rabbit IgG served as the control. ChIP samples were analyzed by quantitative real-time PCR using the FastStart Universal SYBR Green Master (Roche). A standard curve was prepared for each set of primers using serial titration of the input DNA. The percentage of ChIP DNA was calculated relative to the input DNA from primer-specific standard curves using the Rotor-Gene 6000 Series Software 1.7. The primer sequences for ChIP are listed in Supplementary Table 4. Antibodies used were: H4S1ph (Abcam; ab14723), H4K5ac (Millipore; CS204381), H4R3me2a (Active Motif; 39705), H4R3me2s (Abcam; ab5823), CK2α (Abcam; ab70774), H3K4me3 (Abcam; ab8580), and H3K27me3 (Abcam; ab6002).
Supplementary Figure 7. Knockdown of NatD has no effect on enrichment of H4S1ph on some EMT-related gene promoters. (a-d) ChIP analysis of the enrichment of Nt-ac-H4, H4S1ph, H3K4me3 and H3K27me3 on the promoter of Zeb1(a), Zeb2(b), Twist1(c), and Snail (d) in Scr and NatD-KD H1299 cells. IgG served as a negative control. Results are shown as mean ± s.d. of three independent experiments; two-tailed Student’s t-test, **P<0.01 or *P<0.05 compared to Scr […]
(1 picture or pasted object on this page, not shown here)

**Q.** How did the “expression of E-cadherin” value (H1299 cells; basal, knockdown vs Scr) turn out when “NatD-KD2: Human NatD shRNA KD2: 5′-GGTTGAATGTCTCCATTGA-3′, lentiviral (shRNA lentiviral)” was run?
**A.** The value was “increased the expression”.

**Q.** And the “expression of N-cadherin and Vimentin” value (H1299 cells; basal, knockdown vs Scr)?
**A.** Its value is “reduced the expression”.

**Q.** What about the “expression of Slug” value (H1299 cells; basal, knockdown vs Scr) of the same substance?
**A.** The value was “significantly repressed”.

**Q.** What about the “expression of Twist1, Snail, Zeb1, or Zeb2” value (H1299 cells; basal, knockdown vs Scr) of the same substance?
**A.** The value was “not changed”.

**Q.** What about the “changes of E-cadherin, N-cadherin, Vimentin and Slug expression with TGF-β1” value (H1299 cells; presence of TGF-β1 relative to basal) of the same substance?
**A.** The value was “blocked changes of expression levels”.

**Q.** What about the “expression of proliferation- and cell cycle-related genes (except CCND2)” value (H1299 cells; qPCR, vs Scr) of the same substance?
**A.** The value was “did not affect”.

**Q.** What about the “enrichment of H4S1ph, H3K4me3, and H3K27me3 on Zeb1, Zeb2, Twist1, Snail promoters” value [1] of the same substance?
**A.** The value was “unchanged”.

**Q.** What about the “enrichment of Nt-ac-H4 on Zeb1, Zeb2, Twist1, Snail promoters” value [1] of the same substance?
**A.** The value was “reduced”.
